This is an account of results in ChEMBL document CHEMBL1142215, “Site-specific reduction of oxidative and lipid metabolism in adipose tissue of 3'-azido-3'-deoxythymidine-treated rats” (2007).

Assay [1] deals with Rattus norvegicus. In words: Increase in body weight in lean Wistar rat at 70 mg/kg/day after 4 weeks. It is filed as functional.
For assay [2], the system named is Rattus norvegicus. In words: Increase in body weight in cafteria-fed Wistar rat at 70 mg/kg/day after 4 weeks. It is filed as functional.
Assay [3] has as its system Rattus norvegicus. In words: Increase in triglyceride level in lean Wistar rat at 70 mg/kg/day relative to control. It counts as functional.
In assay [4] the test system is Rattus norvegicus. In words: Increase in triglyceride level in cafteria-fed Wistar rat at 70 mg/kg/day relative to control. It counts as functional.
Assay [5] relates to Rattus norvegicus. Put plainly: Effect on HDL cholesterol level in lean Wistar rat at 70 mg/kg/day relative to control. It counts as functional.
The subject of assay [6] is Rattus norvegicus. Put plainly: Effect on HDL cholesterol level in cafteria-fed Wistar rat at 70 mg/kg/day relative to control. It is filed as functional.
Assay [7] deals with Rattus norvegicus. In words: Effect on LDL cholesterol level in lean Wistar rat at 70 mg/kg/day relative to control. It is filed as functional.
Assay [8] relates to Rattus norvegicus. In words: Effect on LDL cholesterol level in cafteria-fed Wistar rat at 70 mg/kg/day relative to control. It is filed as functional.
Assay [9] concerns Rattus norvegicus. In words: Increase in cellularity in cafteria-fed Wistar rat inguinal tissue assessed as DNA content at 70 mg/kg/day. It counts as functional.
The subject of assay [10] is Rattus norvegicus. In words: Decrease in inguinal adipocyte size in cafteria-fed Wistar rat at 70 mg/kg/day. It is filed as functional.
In assay [11] the test system is Rattus norvegicus. Put plainly: Decrease in epididymal adipocyte size in cafteria-fed Wistar rat at 70 mg/kg/day. It counts as functional, organism-based.
Assay [12] deals with Rattus norvegicus. In words: Decrease in cytochrome c oxidase activity in lean Wistar rat inguinal adipose tissue at 70 mg/kg/day by DNA quantification assay. It counts as organism-based.
Assay [13] concerns Rattus norvegicus. In words: Decrease in cytochrome c oxidase activity in cafteria-fed Wistar rat inguinal adipose tissue at 70 mg/kg/day by DNA quantification assay. It is filed as organism-based.
Assay [14] deals with Fatty acid synthase (Rattus norvegicus) (UniProt P12785). Put plainly: Decrease in fatty acid synthase activity in lean Wistar rat inguinal adipose tissue assessed at 70 mg/kg/day by DNA quantification assay. It counts as organism-based.
Sequence of Fatty acid synthase (Rattus norvegicus) (P12785 whole entry): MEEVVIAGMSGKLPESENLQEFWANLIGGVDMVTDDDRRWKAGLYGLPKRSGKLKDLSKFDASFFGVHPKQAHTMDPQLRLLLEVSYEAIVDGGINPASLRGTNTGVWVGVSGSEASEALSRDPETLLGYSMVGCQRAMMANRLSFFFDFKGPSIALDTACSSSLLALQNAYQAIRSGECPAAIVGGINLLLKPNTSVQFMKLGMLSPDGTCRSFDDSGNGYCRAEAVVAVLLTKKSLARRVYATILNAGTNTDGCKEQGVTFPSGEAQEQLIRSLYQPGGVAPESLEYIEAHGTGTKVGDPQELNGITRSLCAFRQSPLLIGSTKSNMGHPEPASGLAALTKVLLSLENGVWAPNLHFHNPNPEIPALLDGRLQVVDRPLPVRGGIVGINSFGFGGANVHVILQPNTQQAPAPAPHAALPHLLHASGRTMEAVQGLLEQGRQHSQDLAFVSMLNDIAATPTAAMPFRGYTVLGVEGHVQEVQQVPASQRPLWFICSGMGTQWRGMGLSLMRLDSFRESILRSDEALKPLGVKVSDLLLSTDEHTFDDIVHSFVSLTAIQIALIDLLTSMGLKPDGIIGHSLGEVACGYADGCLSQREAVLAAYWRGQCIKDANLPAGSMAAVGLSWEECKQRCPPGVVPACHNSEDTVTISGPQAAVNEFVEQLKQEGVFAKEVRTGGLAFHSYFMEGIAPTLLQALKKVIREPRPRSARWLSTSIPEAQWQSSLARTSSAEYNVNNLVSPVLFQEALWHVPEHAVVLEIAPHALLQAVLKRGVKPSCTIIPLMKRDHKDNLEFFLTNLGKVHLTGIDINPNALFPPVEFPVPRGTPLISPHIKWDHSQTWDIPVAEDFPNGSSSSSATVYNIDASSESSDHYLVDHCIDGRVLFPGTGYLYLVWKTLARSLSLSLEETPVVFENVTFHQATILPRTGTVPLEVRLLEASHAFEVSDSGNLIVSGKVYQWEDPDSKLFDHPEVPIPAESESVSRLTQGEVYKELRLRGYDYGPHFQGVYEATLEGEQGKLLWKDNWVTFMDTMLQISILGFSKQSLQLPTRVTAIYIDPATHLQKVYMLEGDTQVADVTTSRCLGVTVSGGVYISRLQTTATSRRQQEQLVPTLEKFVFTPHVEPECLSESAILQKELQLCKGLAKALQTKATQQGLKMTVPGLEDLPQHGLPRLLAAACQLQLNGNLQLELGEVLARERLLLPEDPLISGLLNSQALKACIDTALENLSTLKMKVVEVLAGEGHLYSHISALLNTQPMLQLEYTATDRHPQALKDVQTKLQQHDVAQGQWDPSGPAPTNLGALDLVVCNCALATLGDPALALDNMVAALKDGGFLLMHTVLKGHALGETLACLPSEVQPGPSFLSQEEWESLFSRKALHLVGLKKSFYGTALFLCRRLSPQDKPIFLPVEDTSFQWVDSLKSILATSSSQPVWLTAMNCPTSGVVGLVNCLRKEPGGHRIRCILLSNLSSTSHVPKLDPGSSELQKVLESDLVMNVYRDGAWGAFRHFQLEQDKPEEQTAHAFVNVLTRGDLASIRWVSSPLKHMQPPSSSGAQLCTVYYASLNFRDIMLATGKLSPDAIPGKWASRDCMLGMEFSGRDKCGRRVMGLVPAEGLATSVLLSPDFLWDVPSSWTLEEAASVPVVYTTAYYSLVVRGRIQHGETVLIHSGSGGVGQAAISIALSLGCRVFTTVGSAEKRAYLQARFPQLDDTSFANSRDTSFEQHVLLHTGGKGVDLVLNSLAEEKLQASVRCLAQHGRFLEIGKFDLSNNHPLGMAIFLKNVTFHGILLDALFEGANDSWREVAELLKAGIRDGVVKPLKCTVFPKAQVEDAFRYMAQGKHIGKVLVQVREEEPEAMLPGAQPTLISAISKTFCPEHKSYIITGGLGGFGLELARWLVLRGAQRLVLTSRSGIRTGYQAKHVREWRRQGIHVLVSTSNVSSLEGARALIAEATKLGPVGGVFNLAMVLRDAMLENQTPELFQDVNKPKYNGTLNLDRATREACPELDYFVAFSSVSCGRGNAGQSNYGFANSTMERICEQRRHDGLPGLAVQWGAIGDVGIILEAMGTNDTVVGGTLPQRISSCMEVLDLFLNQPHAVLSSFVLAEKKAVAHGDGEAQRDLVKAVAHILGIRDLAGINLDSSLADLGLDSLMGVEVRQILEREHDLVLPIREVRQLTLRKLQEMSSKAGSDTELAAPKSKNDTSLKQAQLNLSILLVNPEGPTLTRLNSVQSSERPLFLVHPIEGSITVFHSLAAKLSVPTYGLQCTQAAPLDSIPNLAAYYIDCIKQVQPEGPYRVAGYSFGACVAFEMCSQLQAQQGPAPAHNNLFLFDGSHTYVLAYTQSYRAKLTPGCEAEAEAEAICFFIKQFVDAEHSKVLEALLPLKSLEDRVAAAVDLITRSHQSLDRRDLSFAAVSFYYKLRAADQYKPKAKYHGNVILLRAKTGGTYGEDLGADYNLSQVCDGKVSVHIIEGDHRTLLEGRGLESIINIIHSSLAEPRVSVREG
Assay [15] shares this target. In words: Decrease in fatty acid synthase activity in Wistar cafteria-fed rat inguinal adipose tissue at 70 mg/kg/day by DNA quantification assay. It is filed as organism-based.
In assay [16] the test system is Rattus norvegicus. Put plainly: Increase in AMPK phosphorylation level in rat inguinal adipose cells at 70 mg/kg/day. It is filed as organism-based.
The test system of assay [17] is Rattus norvegicus. In words: Effect on AMPK phosphorylation level in rat epididymal adipose cell at 70 mg/kg/day. It counts as organism-based.
The target of assay [18] is Fatty acid synthase (Rattus norvegicus) (UniProt P12785). Put plainly: Decrease in fatty acid synthase activity in lean Wistar rat epididymal adipose tissue assessed at 70 mg/kg/day by DNA quantification assay. It counts as organism-based.
Assay [19] shares this target. In words: Decrease in fatty acid synthase activity in Wistar cafteria-fed rat epididymal adipose tissue at 70 mg/kg/day by DNA quantification assay. It counts as organism-based.

Calls of active or inactive are those of the source. The calls are words filed in the database; no cut-off is given here.

As for `Cc1cn([C@H]2C[C@H](N=[N+]=[N-])[C@@H](CO)O2)c(=O)[nH]c1=O` [ZIDOVUDINE], the Activity in the assay on Rattus norvegicus [1] is 401 g; with Rattus norvegicus [2] it was 443 g; in the assay with Rattus norvegicus [3] it was 2.11 mM; with Rattus norvegicus [4] it was 1.96 mM; with Rattus norvegicus [5] it was 0.43 mM; in the assay with Rattus norvegicus [6], 0.32 mM. Besides, the Activity with Rattus norvegicus [7] is 0.27 mM; in the assay on Rattus norvegicus [8] it was 0.6 mM; in the assay on Rattus norvegicus [9] it was 625 µg; in the assay on Rattus norvegicus [10], 2082 um2; in the assay on Rattus norvegicus [12], 6.61 U/mg; in the assay on Rattus norvegicus [13], 6.43 U/mg. For the same compound, the Activity in assay [14] amounted to 0.72 U/mg; in assay [15] it was 0.55 U/mg. Further, the result (in the assay with Rattus norvegicus [11]; in assay [18]; in assay [19]) was inactive. Further, the outcome in the assay on Rattus norvegicus [16] and in the assay with Rattus norvegicus [17] was Active.
